Measurements: ChEMBL document CHEMBL1201862, “PubChem BioAssay data set” (2004)
Activity calls are given as the source filed them.

Legend:
[1] = microbe, parasite or virus in culture; format: functional; details: Mycobacterium tuberculosis
[2] = Artemis endonuclease inhibitor potency, dose response, biochemical, fluorescence intensity (AID 720701); format: functional;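 further: Artemis endonuclease enzyme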
[3] = miR-122 activators in hepatoma reporter cells, dose response, cell-based, Huh7 psiCHECK-miR122, Renilla luciferase, cherry-picked (AID 651956); format: functional;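 further: huh7 hepatoma cells stably carrying a psiCHECK-2 miR-122 sensor plasmid; renilla luciferase signal reporting endogenous miR-122 activity after 48 h compound exposure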
[4] = inhibitors of PGC1a acetylation in cells, dose response, cell-based, cherry-picked samples (AID 720514); format: functional;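 further: potency may reflect raised or lowered acetylation signal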
[5] = HEK293T cytotoxicity, dose response, cytotoxicity control for miR-122 modulator project, cell-based, inhibitor set, cherry-pick, set 2 (AID 720697); format: functional
Protein Tat = Protein Tat (Human immunodeficiency virus type 1 group M subtype B (isolate HXB2)(HIV-1), UniProt P04608); format: functional;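 further: tat binding to TAR RNA read out by fluorescence polarization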
Protein Tat, sequence (P04608 whole entry, the tested form may be a part): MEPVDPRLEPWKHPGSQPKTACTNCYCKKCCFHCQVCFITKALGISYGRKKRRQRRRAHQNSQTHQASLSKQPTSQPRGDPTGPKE

[6] = target: T1, Oxysterols receptor LXR-beta (Homo sapiens, UniProt P55055); format: functional, cell-based;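 further: Cell-based luminescence dose-response assay of agonist activity at LXR, run as a confirmatory counterscreen to a daf-12 agonist screen; agonist potency from rising luciferase signal of a Gal4-LXR reporter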
T1 sequence (P55055 whole entry): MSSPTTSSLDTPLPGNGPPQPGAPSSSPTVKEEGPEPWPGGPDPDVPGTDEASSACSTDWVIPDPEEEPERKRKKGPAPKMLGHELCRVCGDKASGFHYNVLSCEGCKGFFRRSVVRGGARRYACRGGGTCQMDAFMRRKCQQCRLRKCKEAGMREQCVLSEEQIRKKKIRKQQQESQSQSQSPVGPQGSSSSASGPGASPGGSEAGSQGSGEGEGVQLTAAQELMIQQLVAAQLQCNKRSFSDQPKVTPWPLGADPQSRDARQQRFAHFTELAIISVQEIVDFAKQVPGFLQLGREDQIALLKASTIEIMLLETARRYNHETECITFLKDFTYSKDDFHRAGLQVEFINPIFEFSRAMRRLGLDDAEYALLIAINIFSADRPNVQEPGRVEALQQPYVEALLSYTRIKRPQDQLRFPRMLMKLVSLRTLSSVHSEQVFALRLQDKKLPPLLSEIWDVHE

[7] = PAX2 cell-based inhibition, dose response, selectivity assay for PAX8 inhibitor project, plate reader, dry powder samples (AID 743048); format: functional;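 further: HEK293 cells carrying a WT1 promoter luciferase reporter driven by expressed Pax2; potency is for inhibition of Pax2 driven reporter signal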
[8] = PAX5 activity inhibitors, dose response, selectivity assay for PAX8 inhibitor project, cell-based, plate reader, dry powder samples (AID 743047); format: functional;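 further: HEK293 cells carrying a Pax5 driven CD19 promoter luciferase reporter; potency of inhibitors that lower reporter luminescence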
[9] = cytotoxicity in COV434 cells, dose response, cytotoxicity control for PAX8 inhibitor project, cell-based, plate reader, dry powder, SA7 (AID 743145); format: functional
[10] = cytotoxicity dependent on PAX8, dose response, cell-based, plate reader, dry powder (AID 743049); format: functional
Exodeoxyribonuclease V = target: T2, Exodeoxyribonuclease V (Escherichia coli (strain K12), UniProt P04993+P07648+P08394); assay: E. coli RecBCD inhibitors, dose response, counter-screen for AddAB inhibitor project, absorbance, V66 E. coli, mutant T4 phage (AID 492957); format: functional, cell-based, Escherichia coli str. K-12 substr. MG1655
T2 sequence (P04993 whole entry): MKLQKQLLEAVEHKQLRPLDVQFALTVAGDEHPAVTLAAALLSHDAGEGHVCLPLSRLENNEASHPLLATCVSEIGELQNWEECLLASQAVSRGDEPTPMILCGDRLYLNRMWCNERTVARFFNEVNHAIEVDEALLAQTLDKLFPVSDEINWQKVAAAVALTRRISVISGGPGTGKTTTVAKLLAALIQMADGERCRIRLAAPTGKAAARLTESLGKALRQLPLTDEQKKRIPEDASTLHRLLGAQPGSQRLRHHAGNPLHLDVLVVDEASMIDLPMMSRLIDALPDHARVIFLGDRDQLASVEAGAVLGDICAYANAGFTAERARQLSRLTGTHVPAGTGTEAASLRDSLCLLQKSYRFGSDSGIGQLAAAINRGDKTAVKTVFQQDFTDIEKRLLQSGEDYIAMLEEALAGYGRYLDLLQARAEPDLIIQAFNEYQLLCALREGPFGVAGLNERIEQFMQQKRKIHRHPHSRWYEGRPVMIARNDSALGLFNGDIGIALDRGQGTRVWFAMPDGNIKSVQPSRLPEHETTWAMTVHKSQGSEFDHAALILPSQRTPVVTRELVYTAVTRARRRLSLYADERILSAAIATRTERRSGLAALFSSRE
T2 sequence (P07648 whole entry): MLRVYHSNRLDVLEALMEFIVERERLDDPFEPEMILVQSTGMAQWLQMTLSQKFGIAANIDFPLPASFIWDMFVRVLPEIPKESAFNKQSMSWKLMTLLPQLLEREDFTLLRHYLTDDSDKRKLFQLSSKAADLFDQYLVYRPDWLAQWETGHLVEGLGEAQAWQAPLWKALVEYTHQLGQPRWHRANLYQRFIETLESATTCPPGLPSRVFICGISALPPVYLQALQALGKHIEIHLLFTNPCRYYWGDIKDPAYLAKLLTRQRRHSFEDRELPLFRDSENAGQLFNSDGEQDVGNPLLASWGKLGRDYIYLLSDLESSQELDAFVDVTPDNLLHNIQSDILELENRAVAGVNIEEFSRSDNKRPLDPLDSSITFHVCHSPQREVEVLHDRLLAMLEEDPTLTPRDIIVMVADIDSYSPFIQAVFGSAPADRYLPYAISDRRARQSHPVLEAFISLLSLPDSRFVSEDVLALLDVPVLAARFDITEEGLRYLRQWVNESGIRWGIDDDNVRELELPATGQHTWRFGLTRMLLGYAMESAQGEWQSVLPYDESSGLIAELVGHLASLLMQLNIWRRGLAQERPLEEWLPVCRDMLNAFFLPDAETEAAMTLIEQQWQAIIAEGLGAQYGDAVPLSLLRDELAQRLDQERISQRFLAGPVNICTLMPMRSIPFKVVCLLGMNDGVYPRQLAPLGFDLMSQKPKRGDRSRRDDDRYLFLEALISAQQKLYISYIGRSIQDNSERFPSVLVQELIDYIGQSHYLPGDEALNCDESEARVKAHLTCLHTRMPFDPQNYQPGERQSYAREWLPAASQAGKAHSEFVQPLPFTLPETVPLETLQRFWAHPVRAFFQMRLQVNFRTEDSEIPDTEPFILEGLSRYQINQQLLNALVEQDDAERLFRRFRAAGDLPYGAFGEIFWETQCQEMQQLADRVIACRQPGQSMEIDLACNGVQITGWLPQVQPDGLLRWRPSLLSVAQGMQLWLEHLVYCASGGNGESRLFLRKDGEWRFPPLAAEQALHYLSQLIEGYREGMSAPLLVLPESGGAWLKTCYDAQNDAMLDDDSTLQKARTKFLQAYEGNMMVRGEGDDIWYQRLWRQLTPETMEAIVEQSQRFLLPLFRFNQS
T2 sequence (P08394 whole entry): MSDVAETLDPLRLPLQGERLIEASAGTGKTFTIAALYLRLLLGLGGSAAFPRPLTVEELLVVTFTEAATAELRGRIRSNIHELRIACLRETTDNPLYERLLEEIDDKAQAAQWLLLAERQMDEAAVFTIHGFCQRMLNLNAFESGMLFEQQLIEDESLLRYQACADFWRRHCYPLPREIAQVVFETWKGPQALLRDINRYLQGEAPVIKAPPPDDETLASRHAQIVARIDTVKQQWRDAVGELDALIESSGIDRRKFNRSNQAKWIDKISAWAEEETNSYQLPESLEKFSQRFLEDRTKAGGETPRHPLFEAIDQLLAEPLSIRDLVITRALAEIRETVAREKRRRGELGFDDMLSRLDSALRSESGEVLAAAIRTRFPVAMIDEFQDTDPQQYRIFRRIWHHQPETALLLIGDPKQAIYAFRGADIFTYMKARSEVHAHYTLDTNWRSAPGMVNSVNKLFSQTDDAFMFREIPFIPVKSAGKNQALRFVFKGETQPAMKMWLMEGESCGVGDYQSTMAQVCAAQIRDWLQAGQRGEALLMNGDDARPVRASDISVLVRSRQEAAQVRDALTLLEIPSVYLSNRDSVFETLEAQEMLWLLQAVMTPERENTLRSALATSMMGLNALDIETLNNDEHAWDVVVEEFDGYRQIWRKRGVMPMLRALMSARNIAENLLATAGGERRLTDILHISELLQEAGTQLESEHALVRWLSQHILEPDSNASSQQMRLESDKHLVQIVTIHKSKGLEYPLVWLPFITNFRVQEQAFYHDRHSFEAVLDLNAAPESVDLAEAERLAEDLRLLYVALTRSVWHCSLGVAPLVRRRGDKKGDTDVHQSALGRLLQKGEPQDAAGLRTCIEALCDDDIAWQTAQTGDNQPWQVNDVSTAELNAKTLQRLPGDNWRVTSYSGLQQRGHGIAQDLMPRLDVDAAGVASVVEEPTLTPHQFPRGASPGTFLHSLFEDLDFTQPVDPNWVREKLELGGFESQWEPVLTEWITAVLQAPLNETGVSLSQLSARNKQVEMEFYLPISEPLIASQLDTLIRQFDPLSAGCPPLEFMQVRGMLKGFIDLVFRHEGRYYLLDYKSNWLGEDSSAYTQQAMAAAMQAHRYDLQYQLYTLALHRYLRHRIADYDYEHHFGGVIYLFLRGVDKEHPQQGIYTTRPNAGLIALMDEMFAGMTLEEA

Beta-galactosidase = Beta-galactosidase (Escherichia coli, UniProt Q8VNN2); assay: beta-galactosidase enzyme inhibitors and activators, dose response, artefact control for CCR6 antagonist project, biochemical, E. coli enzyme, set 3 (AID 504712); format: functional
Beta-galactosidase, sequence (Q8VNN2 whole entry): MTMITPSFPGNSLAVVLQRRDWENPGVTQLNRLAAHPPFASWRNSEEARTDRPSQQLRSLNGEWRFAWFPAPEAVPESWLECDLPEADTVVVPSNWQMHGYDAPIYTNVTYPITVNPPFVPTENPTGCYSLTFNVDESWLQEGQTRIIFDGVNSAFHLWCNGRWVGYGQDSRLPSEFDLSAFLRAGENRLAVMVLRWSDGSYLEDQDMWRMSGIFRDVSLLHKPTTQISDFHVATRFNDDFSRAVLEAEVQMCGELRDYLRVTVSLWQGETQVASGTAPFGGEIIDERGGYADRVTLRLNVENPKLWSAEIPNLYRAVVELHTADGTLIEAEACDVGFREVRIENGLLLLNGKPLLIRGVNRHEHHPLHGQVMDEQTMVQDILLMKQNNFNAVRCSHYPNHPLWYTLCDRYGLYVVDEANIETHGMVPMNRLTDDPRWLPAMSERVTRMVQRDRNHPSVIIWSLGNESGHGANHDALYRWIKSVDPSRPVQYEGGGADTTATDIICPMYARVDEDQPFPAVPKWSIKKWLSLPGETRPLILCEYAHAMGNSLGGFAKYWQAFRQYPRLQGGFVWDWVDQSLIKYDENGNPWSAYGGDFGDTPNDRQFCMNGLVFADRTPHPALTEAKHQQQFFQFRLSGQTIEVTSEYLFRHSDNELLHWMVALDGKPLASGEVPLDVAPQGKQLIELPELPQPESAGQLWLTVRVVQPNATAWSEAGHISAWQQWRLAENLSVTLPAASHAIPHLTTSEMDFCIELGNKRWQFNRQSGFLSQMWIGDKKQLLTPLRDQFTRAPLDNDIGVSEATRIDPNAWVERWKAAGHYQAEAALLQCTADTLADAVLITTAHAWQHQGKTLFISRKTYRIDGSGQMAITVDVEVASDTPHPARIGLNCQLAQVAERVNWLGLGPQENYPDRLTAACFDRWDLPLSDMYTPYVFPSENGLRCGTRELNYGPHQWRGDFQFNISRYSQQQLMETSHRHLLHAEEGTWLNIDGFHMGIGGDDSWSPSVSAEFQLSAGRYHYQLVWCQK

[11] = Counterscreen for AddAB inhibitors: absorbance-based bacterial cell-based high throughput dose response assay for inhibitors of bacterial viability. [Related pubchem assays (depositor defined):AID435030, AID449728, AID449731, AID488942, AID488955, AID488956]; format: functional
Caspase-6 = Caspase-6 (Homo sapiens, UniProt P55212); assay: human caspase-6 inhibitors, dose response, biochemical, VEID-R110 fluorescence, cherry-pick (AID 720632)
Caspase-6, sequence (P55212 24-179 limits assumed): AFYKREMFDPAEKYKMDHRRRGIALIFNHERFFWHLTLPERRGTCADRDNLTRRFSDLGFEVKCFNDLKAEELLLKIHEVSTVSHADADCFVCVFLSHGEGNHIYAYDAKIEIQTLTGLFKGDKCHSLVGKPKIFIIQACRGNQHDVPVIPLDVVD
Caspase-6, sequence (P55212 194-293 limits assumed): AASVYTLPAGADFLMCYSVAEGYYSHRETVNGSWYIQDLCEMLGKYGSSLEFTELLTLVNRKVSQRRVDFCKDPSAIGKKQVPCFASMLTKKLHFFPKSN

[12] = Concentration-dependent survival of SW480 colon cancer line, luminescence detection with CellTiter-Glo, half-maximal inhibitory concentration (AID 1117338); format: functional
[13] = RKO cell viability reduction, dose response, CellTiter-Glo luminescence (AID 1117322); format: functional
[14] = cytotoxicity toward HCT116 cells – cell-based, CellTiter-Glo luminescence, IC50, dose response (AID 1117332); format: functional; details: HCT-116
[15] = SNU-C1 cell viability reduction, dose response, CellTiter-Glo luminescence (AID 1117323); format: functional, cell-based
[16] = cytotoxicity toward Colo320 cells – cell-based, CellTiter-Glo luminescence, IC50, dose response (AID 1117334); format: functional; details: COLO 320
[17] = cytotoxicity toward HT-29 cells – cell-based, CellTiter-Glo luminescence, IC50, dose response (AID 1117330); format: functional
[18] = CellTiter-Glo luminescent dose response of DLD-1 viability loss (AID 1117352); format: functional
[19] = Luminescence-based cell-based high throughput dose response assay to identify activators of the DAF-12 from the parasite S. stercoralis (ssDAF-12).; format: functional
[20] = target: T1, Oxysterols receptor LXR-beta; assay: LXR agonists, Gal4 luciferase reporter, dose response, counter-screen for ssDAF-12 agonist project, cell-based, luminescence, HEK293, S. stercoralis campaign (AID 720737); format: functional; details: read-out: IC50 (the source's name)
[21] = P. falciparum 3D7-ScDHODH growth inhibitors, dose response, SYBR Green, dry powder samples (AID 1159570); format: functional, cell-based;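 further: parasite growth measured after 72 hours of compound exposure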
[22] = P. falciparum Dd2 growth inhibitors, dose response, SYBR Green, cherry-picked samples (AID 1159567); format: functional, cell-based
[23] = P. falciparum Dd2 growth inhibitors, dose response, SYBR Green, dry powder samples (AID 1159566); format: functional, cell-based;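 further: potency for growth inhibition with lower SYBR green DNA signal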
[24] = P. falciparum ATP4 D1247Y mutant growth inhibitors, dose response, NITD609-resistant line, SYBR Green, dry powder (AID 1159571); format: functional, cell-based;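 further: parasites synchronized at ring stage by sorbitol before testing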

COc1ccc2nc(NC(=O)C3CCCN(S(=O)(=O)c4cccs4)C3)sc2c1 (configuration not stated)
CC50 [1]: 35.4 µM (active) | IC50 [2]: > 20 µM (inactive)

O=C(Nc1ccc(F)cc1)N1CCCCN2[C@H](CO)[C@@H](c3ccc(C#Cc4ccccc4)cc3)[C@H]2C1
AC50 [3]: 10.5 µM (active) | AC50 [4]: 22.2 µM (active) | AC50 [5]: 8.31 µM (active)

FC(F)(F)c1cc(-c2ccco2)nc(NCc2cccnc2)n1
IC50 (Protein Tat): > 100 µM (active)

Cc1nn(-c2ccc(Br)cc2)c(=O)c2ccccc12
EC50 [6]: > 67.6 µM (inactive) | EC50 (cells): > 67.6 µM (inactive)

N#C[C@@H]1[C@@H](c2ccc(C3=CCCCC3)cc2)[C@@H](CO)N1C(=O)NC1CCCCC1
AC50 [7]: > 32 µM (inactive) | AC50 [8]: 29.3 µM (active) | AC50 [9]: 67.3 µM (active) | AC50 [10]: 10.6 µM (active)

O=C(O)c1ccc(N/N=C/C=C/c2ccc([N+](=O)[O-])o2)cc1
IC50 (Exodeoxyribonuclease V): > 119 µM (inactive) | IC50 (Beta-galactosidase): 33 µM (active) | IC50 [11]: 55.5 µM (inactive) | AC50 (Caspase-6): 3.34 µM (active)

OC[C@@H](O)[C@H](O)[C@H](O)[C@@H](O)CO [GALACTITOL]
IC50 [12]: > 20 µM (inactive) | IC50 [13]: > 20 µM (inactive) | IC50 [14]: > 20 µM (inactive) | IC50 [15]: > 20 µM (inactive) | IC50 [16]: > 20 µM (inactive) | IC50 [17]: > 20 µM (inactive) | IC50 [18]: > 20 µM (inactive)

COc1ccc(NC(=O)NC(C)C2CC3CCC2C3)cc1 (configuration not stated)
IC50 [19]: > 67.5 µM (inactive) | EC50 [20]: > 67.5 µM (inactive)

O=C(Cc1ccccc1)N1CC(=O)N2[C@H](CO)[C@H](c3ccc(C#Cc4ccccc4)cc3)[C@H]2C1
AC50 [21]: 0.0554 µM (active) | AC50 [22]: < 0.3 µM (active) | AC50 [23]: 0.0291 µM (active) | AC50 [24]: 0.0288 µM (active)

O=C(C(Br)=Cc1ccccc1)c1ccccc1
AC50 [4]: 10.9 µM (active)

CC1CCCCN1CCNC(=O)CC1Oc2ccccc2NC1=O (configuration not stated)
IC50 [19]: > 67.5 µM (inactive) | EC50 [20]: > 67.5 µM (inactive)
